EP1007530B1, “6-O-SUBSTITUTED ERYTHROMYCIN COMPOUNDS AND METHOD FOR MAKING SAME” (ABBOTT LABORATORIES, priority 1996, dated 1997)
Converted amounts (≈) assume the structure as drawn.

Legend:
Assay in all cases: In vitro assay of antibacterial activity (agar dilution MIC)
Type in all cases: cell-based
[1] = system: Micrococcus luteus ATCC 9341; conditions: BHI agar, 35-37 °C, 20 to 24 hours, unit assumed
Protocol: (§1) Representative compounds of the present invention were assayed in vitro for antibacterial activity as follows: Twelve petri dishes containing successive aqueous dilutions of the test compound mixed with 10 mL of sterilized Brain Heart Infusion (BHI) agar (Difco 0418-01-5) were prepared. Each plate was inoculated with 1:100 (or 1:10 for slow-growing strains, such as Micrococcus and Streptococcus) dilutions of up to 32 different microorganisms, using a Steers replicator block. The inoculated plates were incubated at 35-37 °C for 20 to 24 hours, In addition, a control plate, using BHI agar containing no test compound, was prepared and incubated at the beginning and end of each test.
(§2) An additional plate containing a compound having known susceptibility patterns for the organisms being tested and belonging to the same antibiotic class as the test compound was also prepared and incubated as a further control, as well as to provide test-to-test comparability. Erythromycin A was used for this purpose.
(§3) After incubation, each plate was visually inspected. The minimum inhibitory concentration (MIC) was defined as the lowest concentration of drug yielding no growth, a slight haze, or sparsely isolated colonies on the inoculum spot as compared to the growth control. […]

Escherichia coli JUHL = conditions: BHI agar, 35-37 °C, 20 to 24 hours, in µg/mL (unit assumed)
Protocol: as §1, §2, §3

[2] = system: Pseudomonas aeruginosa 5007; conditions: BHI agar, 35-37 °C, 20 to 24 hours, unit assumed
Protocol: as §1, §2, §3

[3] = system: Staphylococcus epidermidis 3519; conditions: BHI agar, 35-37 °C, 20 to 24 hours, unit assumed
Protocol: as §1, §2, §3

[4] = system: Staphylococcus aureus CMX 553; conditions: BHI agar, 35-37 °C, 20 to 24 hours, unit assumed
Protocol: as §1, §2, §3

[5] = system: Streptococcus pyogenes PIU 2548; conditions: BHI agar, 35-37 °C, 20 to 24 hours, unit assumed
Protocol: as §1, §2, §3

[6] = system: Klebsiella pneumoniae ATCC 8045; conditions: BHI agar, 35-37 °C, 20 to 24 hours, unit assumed
Protocol: as §1, §2, §3

[7] = system: Staphylococcus aureus 1775; conditions: BHI agar, 35-37 °C, 20 to 24 hours, unit assumed
Protocol: as §1, §2, §3

[8] = system: Streptococcus pyogenes 930; conditions: BHI agar, 35-37 °C, 20 to 24 hours, unit assumed
Protocol: as §1, §2, §3

[9] = system: Streptococcus bovis A-5169; conditions: BHI agar, 35-37 °C, 20 to 24 hours, unit assumed
Protocol: as §1, §2, §3

[10] = system: Staphylococcus aureus CMX 642A; conditions: BHI agar, 35-37 °C, 20 to 24 hours, unit assumed
Protocol: as §1, §2, §3

Escherichia coli H560 = conditions: BHI agar, 35-37 °C, 20 to 24 hours, unit assumed
Protocol: as §1, §2, §3

Escherichia coli DC-2 = conditions: BHI agar, 35-37 °C, 20 to 24 hours, unit assumed
Protocol: as §1, §2, §3

[11] = system: Enterococcus faecium ATCC 8043; conditions: BHI agar, 35-37 °C, 20 to 24 hours, unit assumed
Protocol: as §1, §2, §3

[12] = system: Pseudomonas aeruginosa K799/WT; conditions: BHI agar, 35-37 °C, 20 to 24 hours, unit assumed
Protocol: as §1, §2, §3

Escherichia coli SS = conditions: BHI agar, 35-37 °C, 20 to 24 hours, unit assumed
Protocol: as §1, §2, §3

[13] = system: Pseudomonas aeruginosa K799/61; conditions: BHI agar, 35-37 °C, 20 to 24 hours, unit assumed
Protocol: as §1, §2, §3

[14] = system: Pseudomonas aeruginosa DPHD-2862; conditions: BHI agar, 35-37 °C, 20 to 24 hours, unit assumed
Protocol: as §1, §2, §3

[15] = system: Pseudomonas aeruginosa BMH10; conditions: BHI agar, 35-37 °C, 20 to 24 hours, in µg/mL (unit assumed)
Protocol: as §1, §2, §3

[16] = system: Pseudomonas aeruginosa DPHD-5263; conditions: BHI agar, 35-37 °C, 20 to 24 hours, in µg/mL (unit assumed)
Protocol: as §1, §2, §3

[17] = system: Staphylococcus aureus ATCC 6538P; conditions: BHI agar, 35-37 °C, 20 to 24 hours, unit assumed
Protocol: as §1, §2, §3

Pseudomonas capacia 2961 = conditions: BHI agar, 35-37 °C, 20 to 24 hours, in µg/mL (unit assumed)
Protocol: as §1, §2, §3

[18] = system: Enterobacter aerogenes ATCC 13048; conditions: BHI agar, 35-37 °C, 20 to 24 hours, unit assumed
Protocol: as §1, §2, §3

Candida albicans CCH 442 = conditions: BHI agar, 35-37 °C, 20 to 24 hours, unit assumed
Protocol: as §1, §2, §3

[19] = system: Providencia struartii CMX 640; conditions: BHI agar, 35-37 °C, 20 to 24 hours, unit assumed
Protocol: as §1, §2, §3

[20] = system: Micrococcus luteus ATCC 4698; conditions: BHI agar, 35-37 °C, 20 to 24 hours, unit assumed
Protocol: as §1, §2, §3

[21] = system: Staphylococcus aureus A-5278; conditions: BHI agar, 35-37 °C, 20 to 24 hours, unit assumed
Protocol: as §1, §2, §3

[22] = system: Staphylococcus aureus NCTC10649M; conditions: BHI agar, 35-37 °C, 20 to 24 hours, unit assumed
Protocol: as §1, §2, §3

Escherichia coli KNK 437 = conditions: BHI agar, 35-37 °C, 20 to 24 hours, unit assumed
Protocol: as §1, §2, §3

[23] = system: Streptococcus agalactiae CMX 508; conditions: BHI agar, 35-37 °C, 20 to 24 hours, unit assumed
Protocol: as §1, §2, §3

[24] = system: Staphylococcus aureus A5177; conditions: BHI agar, 35-37 °C, 20 to 24 hours, unit assumed
Protocol: as §1
(§4) An additional plate containing a compound having known susceptibility patterns for the organisms being tested and belonging to the same antibiotic class as the test compound was also prepared and incubated as a further control, as well as to provide test-to-test comparability.
as §3

[25] = system: Streptococcus pyogenes EES61; conditions: BHI agar, 35-37 °C, 20 to 24 hours, unit assumed
Protocol: as §1, §2, §3

[26] = system: Actinetobacter calcoaceticus CMX 669; conditions: BHI agar, 35-37 °C, 20 to 24 hours, unit assumed
Protocol: as §1, §4, §3

[27] = system: Mycobacterium smegmatis ATCC 114; conditions: BHI agar, 35-37 °C, 20 to 24 hours, unit assumed
Protocol: as §1, §2, §3

Compound | MIC [1] | MIC (Escherichia coli JUHL) | MIC [2] | MIC [3] | MIC [5] | MIC [6] | MIC [7] | MIC [8] | MIC [9] | MIC [10] | MIC (Escherichia coli H560) | MIC [11] | MIC [12] | MIC [13] | MIC [14] | MIC [15] | MIC [16] | MIC [17] | MIC (Pseudomonas capacia 2961) | MIC [18] | other results
CC[C@H]1OC(=O)[C@H](C)[C@@H](O[C@H]2C[C@@](C)(OC)[C@@H](O)[C@H](C)O2)[C@H](C)[C@@H](O[C@@H]2O[C@H](C)C[C@H](N(C)C)[C@H]2O)[C@](C)(O)C[C@@H](C)C(=O)[C@H](C)[C@@H](O)[C@]1(C)O [Ery. A, Erythromycin A, reference compound] | 0.05 µg/mL (≈ 0.0681 µM) | > 100 | > 100 µg/mL | 0.39 µg/mL (≈ 0.531 µM) | 3.1 µg/mL (≈ 4.22 µM) | > 100 µg/mL | > 100 µg/mL | > 100 µg/mL | 0.02 µg/mL (≈ 0.0273 µM) | 0.39 µg/mL (≈ 0.531 µM) | 50 µg/mL (≈ 68.1 µM) | 0.05 µg/mL (≈ 0.0681 µM) | 100 µg/mL (≈ 136 µM) | 1.56 µg/mL (≈ 2.13 µM) | > 100 µg/mL | > 100 | >100 | 0.2 µg/mL (≈ 0.273 µM) | > 100 | > 100 µg/mL | MIC [4]: 0.39 µg/mL (≈ 0.531 µM); MIC (Escherichia coli DC-2): > 100 µg/mL; MIC (Escherichia coli SS): 0.78 µg/mL (≈ 1.06 µM); MIC (Candida albicans CCH 442): > 100 µg/mL; MIC [19]: > 100 µg/mL; MIC [20]: 0.2 µg/mL (≈ 0.273 µM); MIC [21]: > 100 µg/mL; MIC [22]: 0.39 µg/mL (≈ 0.531 µM); MIC (Escherichia coli KNK 437): 100 µg/mL (≈ 136 µM); MIC [23]: 0.05 µg/mL (≈ 0.0681 µM); MIC [24]: 3.1 µg/mL (≈ 4.22 µM)
CCCO[C@]1(C)C[C@@H](C)C(=O)[C@H](C)[C@@H](O)[C@](C)(O)[C@@H](CC)OC(=O)[C@H](C)[C@@H](O[C@H]2C[C@@](C)(OC)[C@@H](O)[C@H](C)O2)[C@H](C)[C@H]1O[C@@H]1O[C@H](C)C[C@H](N(C)C)[C@H]1O [Example 2, Compound of Formula (X): X is =O, R is propyl] | 0.2 µg/mL | >100 | > 100 µg/mL | 1.56 µg/mL | 6.2 µg/mL | > 100 µg/mL | > 100 µg/mL | > 100 µg/mL | 0.05 µg/mL | 12.5 µg/mL | > 100 µg/mL | 3.1 µg/mL | 6.2 µg/mL | > 100 µg/mL | > 100 µg/mL | >100 | >100 | 3.1 µg/mL | 50 | > 100 µg/mL | MIC [4]: 3.1 µg/mL; MIC (Escherichia coli DC-2): > 100 µg/mL; MIC (Escherichia coli SS): 1.56 µg/mL; MIC (Candida albicans CCH 442): 0.1 µg/mL; MIC [19]: > 100 µg/mL; MIC [20]: 3.1 µg/mL; MIC [21]: > 100 µg/mL; MIC [22]: 6.2 µg/mL; MIC (Escherichia coli KNK 437): > 100 µg/mL; MIC [25]: 0.05 µg/mL; MIC [23]: 0.2 µg/mL; MIC [24]: 25 µg/mL; MIC [26]: > 100 µg/mL
CC[C@H]1OC(=O)[C@H](C)[C@@H](O[C@H]2C[C@@](C)(OC)[C@@H](O)[C@H](C)O2)[C@H](C)[C@@H](O[C@@H]2O[C@H](C)C[C@H](N(C)C)[C@H]2O)[C@](C)(OCC(C)=O)C[C@@H](C)C(=O)[C@H](C)[C@@H](O)[C@]1(C)O [Example 9, Compound of Formula (X); X is =O. R is 2-oxopropyl] | 3.1 µg/mL | > 100 | > 100 µg/mL | 3.1 µg/mL | 12.5 µg/mL | > 100 µg/mL | > 100 µg/mL | > 100 µg/mL | 3.1 µg/mL | 3.1 µg/mL | > 100 µg/mL | 3.1 µg/mL | > 100 µg/mL | 12.5 µg/mL | > 100 µg/mL | > 100 | > 100 | 3.1 µg/mL | > 100 | > 100 µg/mL | MIC [27]: 3.1 µg/mL; MIC (Candida albicans CCH 442): > 100 µg/mL; MIC [19]: > 100 µg/mL; MIC [21]: > 100 µg/mL; MIC [22]: 3.1 µg/mL; MIC (Escherichia coli KNK 437): > 100 µg/mL; MIC [23]: 3.1 µg/mL; MIC [26]: 50 µg/mL
